# Legend:
# Format in all cases: in vivo
# [1] = system: pigweed (Amaranthus retroflexus); assay: Test A pre-/postemergence plant response
# In short: (§1)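 Injury scores (0, no effect; 100, complete control) come from visual comparison with untreated controls roughly ten days post-treatment. Test chemicals in a surfactant-containing non-phytotoxic solvent were applied as a directed soil spray preemergence and to one- to two-leaf seedlings postemergence.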
# [2] = system: barnyardgrass (Echinochloa crus-galli); assay: Test A pre-/postemergence plant response
# In short: as §1
# [3] = system: Surinam grass (Brachiaria decumbens); assay: Test B pre-/postemergence plant response
# In short: (§2)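 Ratings reflect visual comparison with untreated controls 13 to 15 days after application, from 0 (no effect) to 100 (complete control). Application was preemergence to seeded loam/sand soil or postemergence to 1- to 4-leaf plants, with compound in a non-phytotoxic, surfactant-containing solvent.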
# [4] = system: morningglory (Ipomoea coccinea); assay: Test B pre-/postemergence plant response
# In short: as §2
# [5] = system: goosegrass (Eleusine indica); assay: Test B pre-/postemergence plant response
# In short: as §2
# [6] = system: downy bromegrass (Bromus tectorum); assay: Test B pre-/postemergence plant response
# In short: as §2
# [7] = system: woolly cupgrass (Eriochloa villosa); assay: Test B pre-/postemergence plant response
# In short: as §2
# [8] = system: velvetleaf (Abutilon theophrasti); assay: Test B pre-/postemergence plant response
# In short: as §2
# [9] = system: yellow nutsedge (Cyperus esculentus); assay: Test B pre-/postemergence plant response
# In short: as §2
# [10] = system: large crabgrass (Digitaria sanguinalis); assay: Test B pre-/postemergence plant response
# In short: as §2
# [11] = system: blackgrass (Alopecurus myosuroides); assay: Test B pre-/postemergence plant response
# In short: as §2
# [12] = system: wheat (Triticum aestivum); assay: Test B pre-/postemergence plant response
# In short: as §2
# [13] = system: Italian ryegrass (Lolium multiflorum); assay: Test B pre-/postemergence plant response
# In short: as §2
# [14] = Postemergence, 125 g ai/ha, 0 to 100 scale where 0 is no effect and 100 is complete control
# [15] = Postemergence, 500 g ai/ha, 0 to 100 scale, 0 = no effect, 100 = complete control, approx. ten days
# [16] = Preemergence, 125 g ai/ha, 0 to 100 scale, 0 = no effect, 100 = complete control
# [17] = Preemergence, 500 g ai/ha, visual injury, 0 to 100 scale (0 no effect, 100 complete control), approx. ten days
# [18] = 31 g ai/ha, postemergence, scale 0 to 100, 0 is no effect, 100 is complete control
# [19] = 62 g ai/ha, postemergence, 0 is no effect, 100 is complete control, 13 to 15 days
# [20] = Postemergence, 250 g ai/ha, scale 0 to 100 (0 no effect, 100 complete control)
# [21] = Postemergence, 125 g ai/ha, visual rating after 13 to 15 days, scale 0 (no effect) to 100 (complete control)
smiles,measurement,setting,value
CCOCCn1c(-c2ccccc2)ncc(C(=O)C2=C(O)CCCC2=O)c1=O [Compound 96],"Plant response rating, Pigweed",[1]; [14],100
same,"Plant response rating, Pigweed",[1]; [15],100
same,"Plant response rating, Pigweed",[1]; [16],100
same,"Plant response rating, Pigweed",[1]; [17],100
same,"Plant response rating, Barnyardgrass",[2]; [14],90
same,"Plant response rating, Barnyardgrass",[2]; [15],90
same,"Plant response rating, Barnyardgrass",[2]; [16],90
same,"Plant response rating, Barnyardgrass",[2]; [17],100
same,"Plant response rating, Surinam Grass",[3]; [18],75
same,Surinam Grass plant response rating (0 to 100 scale),[3]; [19],75
same,"Plant response rating, Surinam Grass",[3]; [20],85
same,"Plant response rating, Morningglory",[4]; [18],65
same,Morningglory plant response rating (0 to 100 scale),[4]; [19],95
same,"Plant response rating, Morningglory",[4]; [20],100
same,"Plant response rating, Goosegrass",[5]; [18],70
same,Goosegrass plant response rating (0 to 100 scale),[5]; [19],70
same,"Plant response rating, Goosegrass",[5]; [20],85
same,"Plant response rating, Bromegrass, Downy",[6]; [18],0
same,"Bromegrass, Downy plant response rating (0 to 100 scale)",[6]; [19],0
same,"Plant response rating, Bromegrass, Downy",[6]; [21],5
same,"Plant response rating, Bromegrass, Downy",[6]; [20],10
same,"Plant response rating, Cupgrass, Woolly",[7]; [18],70
same,"Cupgrass, Woolly plant response rating (0 to 100 scale)",[7]; [19],75
same,"Plant response rating, Cupgrass, Woolly",[7]; [21],85
same,"Plant response rating, Cupgrass, Woolly",[7]; [20],85
same,"Plant response rating, Velvetleaf",[8]; [18],95
same,Velvetleaf plant response rating (0 to 100 scale),[8]; [19],98
same,"Plant response rating, Velvetleaf",[8]; [20],100
same,"Plant response rating, Nutsedge, Yellow",[9]; [18],70
same,"Nutsedge, Yellow plant response rating (0 to 100 scale)",[9]; [19],70
same,"Plant response rating, Nutsedge, Yellow",[9]; [20],85
same,"Plant response rating, Crabgrass, Large",[10]; [18],75
same,"Crabgrass, Large plant response rating (0 to 100 scale)",[10]; [19],80
same,"Plant response rating, Crabgrass, Large",[10]; [21],85
same,"Plant response rating, Crabgrass, Large",[10]; [20],90
same,"Plant response rating, Blackgrass",[11]; [18],5
same,Blackgrass plant response rating (0 to 100 scale),[11]; [19],20
same,"Plant response rating, Blackgrass",[11]; [21],30
same,"Plant response rating, Blackgrass",[11]; [20],40
same,"Plant response rating, Wheat",[12]; [18],0
same,Wheat plant response rating (0 to 100 scale),[12]; [19],5
same,"Plant response rating, Wheat",[12]; [20],15
same,"Plant response rating, Ryegrass, Italian",[13]; [18],0
same,"Ryegrass, Italian plant response rating (0 to 100 scale)",[13]; [19],5
same,"Plant response rating, Ryegrass, Italian",[13]; [20],10

# Source: US8952024B2, “Herbicidal pyrimidone derivatives” (E I du Pont de Nemours and Company, priority 2009, dated 2015)
